{"source": "patent US12629370B2", "about": "“Treatment of prostate cancer” (Sumitomo Pharma Co., Ltd., priority 2016, dated 2026)", "assay_type_in_all_cases": "in vivo, human", "key": {"[1]": {"test_system": "patients with intermediate-risk prostate cancer", "assay": "Example 9: quality of life (EORTC QLQ-C30, QLQ-PR25, AMS)", "experimental": "(§1) Eligible male patients were aged ≥18 years with a histologically confirmed diagnosis of localized, intermediate-risk prostate cancer, for whom 6-month neoadjuvant and adjuvant androgen deprivation therapy (ADT) to external beam radiation therapy (EBRT) was indicated. The criteria for establishing intermediate-risk prostate cancer included the presence of one of the following, without any high-risk feature: T2b-T2c disease, Gleason score 7, or prostate-specific antigen (PSA) 10-20 ng/mL. Additional inclusion criteria included: EBRT scheduled to begin ≥12 weeks after baseline visit; screening serum testosterone >150 ng/dL (5.2 nmol/L); screening PSA concentration >2 ng/ml; body mass index ≥18.0 at screening or baseline (i.e., the subject's BMI prior to treatment commencing); Eastern Cooperative Oncology Group performance status of 0 or 1 at screening. Based on investigator discretion and clinical assessment of the patient's overall medical and disease status, participation was allowed for older patients with high-risk disease (e.g., based on Gleason score or tumor status) who were deemed likely to benefit from 6 months of neoadjuvant/adjuvant ADT. Most patients had intermediate-risk disease. However, a few patients, based on Gleason score or tumor, node, and metastasis staging system, were technically of higher than intermediate risk.\n(§2) Both treatment arms received treatment for 24 weeks. Patients remained on treatment for at least 12 weeks before the start of external beam radiation treatment (EBRT), which was initiated for most patients between Week 13, Day 1 and Week 15, Day 1. EBRT began no later than day 1, week 17.\nQuality of Life (QoL) was assessed via the core 30-item European Organisation for Research and Treatment of Cancer quality of life questionnaire (EORTC QLQ-C30), the 25-item prostate cancer module EORTC questionnaire (EORTC QLQ-PR25), and the aging male survey (AMS). QoL assessments were completed at screening, on day 1 of weeks 1, 5, 13, and 25, and at weeks 29, 33, and 37."}, "serum testosterone": {"test_system": "serum testosterone", "assay": "Example 9: serum testosterone, castration and recovery, neoadjuvant/adjuvant ADT to EBRT, versus degarelix", "settings": "for Percent recovery (95% CI) to baseline testosterone or >280 ng/dL: 12 weeks from last dose", "experimental": "(§3) Eligible male patients were aged ≥18 years with a histologically confirmed diagnosis of localized, intermediate-risk prostate cancer, for whom 6-month neoadjuvant and adjuvant androgen deprivation therapy (ADT) to external beam radiation therapy (EBRT) was indicated. The criteria for establishing intermediate-risk prostate cancer included the presence of one of the following, without any high-risk feature: T2b-T2c disease, Gleason score 7, or prostate-specific antigen (PSA) 10-20 ng/mL. […] Based on investigator discretion and clinical assessment of the patient's overall medical and disease status, participation was allowed for older patients with high-risk disease (e.g., based on Gleason score or tumor status) who were deemed likely to benefit from 6 months of neoadjuvant/adjuvant ADT.\nBoth treatment arms received treatment for 24 weeks. […] EBRT began no later than day 1, week 17. […]\n(§4) Samples for testosterone, luteinizing hormone (LH), FSH, and PSA concentrations were taken at screening, on day 1 of the first week (additionally days 2 and 4 for testosterone and LH), and on day 1 of weeks 2, 3, 5, 9, 13, 17, 21, 25, 29, 33, and 37 thereafter."}, "LH": {"test_system": "LH", "assay": "Example 9: LH", "experimental": "as §3\nBoth treatment arms received treatment for 24 weeks. […] EBRT began no later than day 1, week 17.\n(§5) Patients were evaluated every 4 weeks during the treatment period (including day 1, week 25), at end of treatment (defined as week 29), during follow-up (week 33), and at end of study (EOS).\nas §4"}, "FSH": {"test_system": "FSH", "assay": "Example 9: FSH", "experimental": "as §1, §2, §5\n(§6) Samples for testosterone, luteinizing hormone (LH), FSH, and PSA concentrations were taken at screening, on day 1 of the first week (additionally days 2 and 4 for testosterone and LH), and on day 1 of weeks 2, 3, 5, 9, 13, 17, 21, 25, 29, 33, and 37 thereafter. […] Suppression of FSH was less profound than that of LH, but consistent with the literature, and was greater than that observed with GnRH agonists."}, "PSA": {"test_system": "PSA", "assay": "Example 9: PSA", "experimental": "as §1, §2, §5, §6"}, "[2]": {"settings": "from baseline (day 1) to week 25"}, "[3]": {"settings": "subjects with at least 24 weeks of treatment"}}, "note": "Where a SMILES comes first, the peptide text is derived from it. [ ]: non-standard residue; d: D form. The star is where a group is joined. dPhe(4-NHCONH2) = NC(=O)Nc1ccc(C[C@@H](N)C(=O)O)cc1; Dihydroorotyl(S) = O=C1C[C@@H](C(=O)*)NC(=O)N1; dPhe(4-Cl) = N[C@H](Cc1ccc(Cl)cc1)C(=O)O; Phe(4-NH2) = Nc1ccc(C[C@H](N)C(=O)O)cc1; d2Nal = N[C@H](Cc1ccc2ccccc2c1)C(=O)O; Lys(iPr) = CC(C)NCCCC[C@H](N)C(=O)O; d3Pal = N[C@H](Cc1cccnc1)C(=O)O"}
{"smiles": "CC(=O)N[C@H](Cc1ccc2ccccc2c1)C(=O)N[C@H](Cc1ccc(Cl)cc1)C(=O)N[C@H](Cc1cccnc1)C(=O)N[C@@H](CO)C(=O)N[C@@H](Cc1ccc(NC(=O)[C@@H]2CC(=O)NC(=O)N2)cc1)C(=O)N[C@H](Cc1ccc(NC(N)=O)cc1)C(=O)N[C@@H](CC(C)C)C(=O)N[C@@H](CCCCNC(C)C)C(=O)N1CCC[C@H]1C(=O)N[C@H](C)C(N)=O", "note": "[Degarelix, degarelix, reference compound] (Ac-[d2Nal][dPhe(4-Cl)][d3Pal]S[Phe(4-NH2)](Dihydroorotyl(S))[dPhe(4-NHCONH2)]L[Lys(iPr)]P[dA]-NH2)", "values": [{"measurement": "Global health/QoL, Mean (SD) change", "setting": "[1]; [2]", "value": "−7.5 (13.7)"}, {"measurement": "Hormonal treatment-related symptoms, Mean (SD) change", "setting": "[1]; [2]", "value": "12.9 (10.4)"}, {"measurement": "Sexual activity, Mean (SD) change", "setting": "[1]; [2]", "value": "−11.8 (36.3)"}, {"measurement": "Global health/QoL, Mean (SD) change", "setting": "[1]; from baseline to week 36 (EOS)", "value": "−6.8 (16.0)"}, {"measurement": "Hormonal treatment-related symptoms, Mean (SD) change", "setting": "[1]; from baseline to week 36 (EOS)", "value": "11.7 (10.2)"}, {"measurement": "Sexual activity, Mean (SD) change", "setting": "[1]; from baseline to week 36 (EOS)", "value": "−5.3 (34.7)"}, {"measurement": "Global health/QoL, Mean (SD) change", "setting": "[1]; from week 25 to week 36", "value": "0.7 (15.5)"}, {"measurement": "Hormonal treatment-related symptoms, Mean (SD) change", "setting": "[1]; from week 25 to week 36", "value": "−1.2 (9.1)"}, {"measurement": "Sexual activity, Mean (SD) change", "setting": "[1]; from week 25 to week 36", "value": "6.6 (22.8)"}, {"measurement": "Kaplan-Meier estimate (95% CI) of testosterone recovery, probability of event", "setting": "serum testosterone; 4 weeks from last dose", "value": "0.00 (0.00.0.00)"}, {"measurement": "Kaplan-Meier estimate (95% CI) of testosterone recovery, probability of event", "setting": "serum testosterone; 8 weeks from last dose", "value": "0.00 (0.00.0.00)"}, {"measurement": "patients whose serum testosterone met the definition of recovery", "setting": "serum testosterone; 12-week follow-up", "value": "6 of 38"}, {"measurement": "Percent recovery (95% CI) to baseline testosterone or >280 ng/dL", "setting": "serum testosterone", "value": "5.3 (0.6.17.7) %"}, {"measurement": "Percent recovery (95% CI) to baseline testosterone or >280 ng/dL", "setting": "serum testosterone; listed as degarelix", "value": 5.3, "unit": "%"}, {"measurement": "Median testosterone", "setting": "serum testosterone; Baseline", "value": 403.8, "unit": "ng/dL"}, {"measurement": "Testosterone Median", "setting": "serum testosterone; Baseline", "value": 14.020, "unit": "nmol/L"}, {"measurement": "Testosterone Mean (Std Dev)", "setting": "serum testosterone; Baseline, Compound 1 120 mg QD or degarelix 80 mg Q4W", "value": "14.567 (5.5680) nmol/L"}, {"measurement": "Testosterone Mean (Std Dev)", "setting": "serum testosterone; EOS", "value": "3.038 (4.0224) nmol/L"}, {"measurement": "Testosterone Median", "setting": "serum testosterone; EOS", "value": 1.040, "unit": "nmol/L"}, {"measurement": "Testosterone Mean (Std Dev)", "setting": "serum testosterone; EOT", "value": "0.576 (1.2218) nmol/L"}, {"measurement": "Testosterone Median", "setting": "serum testosterone; EOT", "value": 0.335, "unit": "nmol/L"}, {"measurement": "Testosterone Mean (Std Dev)", "setting": "serum testosterone; Follow-Up", "value": "1.206 (1.9330) nmol/L"}, {"measurement": "Testosterone Median", "setting": "serum testosterone; Follow-Up", "value": 0.560, "unit": "nmol/L"}, {"measurement": "Median testosterone", "setting": "serum testosterone; Week 24", "value": 8.9, "unit": "ng/dL"}, {"measurement": "Testosterone Mean (Std Dev)", "setting": "serum testosterone; Week 25, Day 1", "value": "0.582 (1.5107) nmol/L"}, {"measurement": "Testosterone Median", "setting": "serum testosterone; Week 25, Day 1", "value": 0.310, "unit": "nmol/L"}, {"measurement": "Median testosterone", "setting": "serum testosterone; Week 28/EOT visit", "value": 9.6, "unit": "ng/dL"}, {"measurement": "Median testosterone", "setting": "serum testosterone; Week 32/follow-up", "value": 16.1, "unit": "ng/dL"}, {"measurement": "Median testosterone", "setting": "serum testosterone; Week 36/EOS", "value": 30.0, "unit": "ng/dL"}, {"measurement": "patients recovered to baseline testosterone or greater than 280 ng/dL", "setting": "serum testosterone; end of 12-week follow-up", "value": 6, "unit": "%"}, {"measurement": "median serum testosterone", "setting": "serum testosterone; end of study visit", "value": "< 50", "unit": "ng/dL"}, {"measurement": "Median time to medical castration (≤50 ng/dL)", "setting": "serum testosterone; in vivo", "value": 3, "unit": "days"}, {"measurement": "Median time to profound castration (≤20 ng/dL)", "setting": "serum testosterone; in vivo", "value": 12, "unit": "days"}, {"measurement": "medical castration rate (less than 50 ng/dL)", "setting": "serum testosterone; over 24 weeks, overall", "value": 89, "unit": "%"}, {"measurement": "profound castration rate (less than 20 ng/dL)", "setting": "serum testosterone; over 24 weeks, overall", "value": 68, "unit": "%"}, {"measurement": "Testosterone recovery (baseline or >280 ng/dL): number with events", "setting": "serum testosterone; overall safety population", "value": "6 (16) n (%)"}, {"measurement": "Testosterone recovery: number censored", "setting": "serum testosterone; overall safety population", "value": "32 (84) n (%)"}, {"measurement": "Time to testosterone recovery, 25th percentile (95% CI)", "setting": "serum testosterone; overall safety population", "value": "100 (87.106) days"}, {"measurement": "Time to testosterone recovery, 75th percentile (95% CI)", "setting": "serum testosterone; overall safety population", "value": "106 (100.106) days"}, {"measurement": "Time to testosterone recovery, Median (95% CI)", "setting": "serum testosterone; overall safety population", "value": "100 (100.106) days"}, {"measurement": "Time to testosterone recovery, Median (95% CI)", "setting": "serum testosterone; overall safety population, listed as degarelix", "value": "100 (100, 106) days"}, {"measurement": "medical castration rate (less than 50 ng/dL)", "setting": "serum testosterone; [3]", "value": 86, "unit": "%"}, {"measurement": "profound castration rate (less than 20 ng/dL)", "setting": "serum testosterone; [3]", "value": 71, "unit": "%"}, {"measurement": "Median LH", "setting": "LH; Baseline", "value": 4.8, "unit": "mlU/mL"}, {"measurement": "LH level", "setting": "LH; Day 4", "value": 0.499, "unit": "mIU/mL"}, {"measurement": "Median LH", "setting": "LH; Week 24", "value": 0.1, "unit": "mlU/mL"}, {"measurement": "mean LH level", "setting": "LH; Week 25, Day 1", "value": 0.342, "unit": "IU/L"}, {"measurement": "Median LH", "setting": "LH; Week 28/EOT visit", "value": 0.2, "unit": "mlU/mL"}, {"measurement": "Median LH", "setting": "LH; Week 32/follow-up", "value": 0.5, "unit": "mlU/mL"}, {"measurement": "Median LH", "setting": "LH; Week 36/EOS", "value": 1.4, "unit": "mlU/mL"}, {"measurement": "FSH level before administration", "setting": "FSH; Baseline", "value": 11.716, "unit": "IU/L"}, {"measurement": "FSH level", "setting": "FSH; Week 2, Day 1", "value": 2.519, "unit": "IU/L"}, {"measurement": "mean FSH level", "setting": "FSH; Week 25, Day 1", "value": 1.471, "unit": "IU/L"}, {"measurement": "Median PSA", "setting": "PSA; Baseline", "value": 7.3, "unit": "µg/L"}, {"measurement": "Median PSA", "setting": "PSA; Week 24", "value": 0.1, "unit": "µg/L"}, {"measurement": "Median PSA", "setting": "PSA; Week 28/EOT visit", "value": 0.07, "unit": "µg/L"}, {"measurement": "Median PSA", "setting": "PSA; Week 32/follow-up", "value": 0.07, "unit": "µg/L"}, {"measurement": "Median PSA", "setting": "PSA; Week 36/EOS", "value": 0.07, "unit": "µg/L"}, {"measurement": "patients achieving PSA values less than 0.2 ng/ml", "setting": "PSA; by the end of 12 weeks", "value": "1 of 20"}]}
